Measured values reported in article PMC2804908 (Journal of medicinal chemistry, 2010).
Several values for one entry are separate records, joined by “and”; a condition that tells them apart may be missing. Equal entries are not always repeated. Where two headings read alike, the source gives them in different places.

Assays:
hP2Y6 receptor [1] = target: T1, hP2Y6 receptor (Homo sapiens, UniProt Q15077); test: P2Y6 receptor-stimulated PLC activity; type: cell-based; conditions: for agonist activity at the P2Y6 receptor (in words): at the concentrations tested
hP2Y14 receptor = target: T2, hP2Y14 receptor (Homo sapiens, UniProt Q15391); test: P2Y14 receptor-inhibited accumulation of cAMP; type: cell-based; conditions: for EC50: read-out: EC50, hP2Y14, inhibition of cAMP formation, HEK-293 cells stably transfected with hP2Y14, mean ± standard error, N = 3, NE = no effect at 10 μM; for fold less potent than UDP 3 at the P2Y14 receptor / fold more potent than UDP 3 at the P2Y14 receptor: relative to compound 3; for agonist activity at the P2Y14 receptor (in words): HEK-293 cells expressing hP2Y14; for fold selectivity for P2Y14 in comparison to P2Y6: ratio of EC50 at hP2Y6 to EC50 at hP2Y14
T2 sequence (Q15391 1-338): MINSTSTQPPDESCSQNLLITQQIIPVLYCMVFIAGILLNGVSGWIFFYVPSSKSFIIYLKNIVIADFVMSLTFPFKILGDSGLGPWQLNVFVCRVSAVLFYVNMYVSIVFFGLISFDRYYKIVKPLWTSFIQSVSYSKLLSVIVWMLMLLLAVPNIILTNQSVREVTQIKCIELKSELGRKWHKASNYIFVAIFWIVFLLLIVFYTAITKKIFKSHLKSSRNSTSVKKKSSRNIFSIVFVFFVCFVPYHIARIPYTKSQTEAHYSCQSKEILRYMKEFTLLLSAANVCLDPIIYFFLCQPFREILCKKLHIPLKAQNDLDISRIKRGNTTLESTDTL

hP2Y6 receptor [2] = target: T1, hP2Y6 receptor; conditions: read-out: EC50, hP2Y6; stimulation of PLC, hP2Y6 in 1321N1 cells; footnote b; NE = no effect at 10 μM; ref Maruoka et al. 15, Besada et al. 17, Ko et al. 18; cited from earlier work

T1 sequence (Q15077 whole entry): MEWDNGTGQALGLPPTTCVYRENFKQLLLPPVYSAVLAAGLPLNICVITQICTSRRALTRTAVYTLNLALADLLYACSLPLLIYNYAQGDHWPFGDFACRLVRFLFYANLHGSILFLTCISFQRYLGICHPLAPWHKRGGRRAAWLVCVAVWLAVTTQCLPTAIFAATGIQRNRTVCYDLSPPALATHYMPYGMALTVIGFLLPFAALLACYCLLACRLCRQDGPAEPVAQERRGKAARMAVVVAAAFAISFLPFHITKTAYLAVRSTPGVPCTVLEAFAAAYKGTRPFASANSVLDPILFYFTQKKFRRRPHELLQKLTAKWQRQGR

O=c1ccn([C@H]2[C@H](O)[C@H](O)[C@@]3(COP(=O)(O)OP(=O)(O)O)C[C@H]23)c(=O)[nH]1 [Compound 8, (N)-methanocarba UDP]
EC50 (hP2Y6 receptor [1]; read-out: EC50, hP2Y6, stimulation of PLC, hP2Y6 stably expressed in 1321N1 cells, mean ± standard error, N = 3, >10,000 = <50% effect at 10 μM, NE = no effect at 10 μM): > 10 µM
EC50 (hP2Y14 receptor): > 10 µM

C#CCCOP(=O)(O)OP(=O)(O)OC[C@H]1O[C@@H](n2ccc(=O)[nH]c2=O)[C@H](O)[C@@H]1O.CCN(CC)CC [Compound 20, Diphosphoric acid 1-β-(3-butynyl)ester 2-(uridine-5′-yl)ester]
fold less potent than UDP 3 at the P2Y14 receptor (hP2Y14 receptor): 2 fold

COP(=O)(O)OP(=O)(O)OC[C@H]1O[C@@H](n2ccc(=O)[nH]c2=O)[C@H](O)[C@@H]1O.N [Compound 14, Diphosphoric acid 1-β-methyl ester 2-(uridine-5′-yl)ester]
agonist activity at the P2Y6 receptor (in words) (hP2Y6 receptor [1]): inactive
agonist activity at the P2Y14 receptor (in words) (hP2Y14 receptor): weakly activated

CC(C)(C)OP(=O)(O)OP(=O)(O)OC[C@H]1O[C@@H](n2ccc(=O)[nH]c2=O)[C@H](O)[C@@H]1O [Compound 24, Diphosphoric acid 1-β-tert-butyl ester 2-(uridine-5′-yl)ester]
EC50 (hP2Y6 receptor [1]): 10.8 µM

O=c1ccn([C@@]23C[C@H]2[C@H](COP(=O)(O)OP(=O)(O)O)[C@@H](O)[C@H]3O)c(=O)[nH]1 [Compound 9, (S)-methanocarba UDP]
EC50 (hP2Y14 receptor): > 10 µM

N.O=c1ccn([C@@H]2O[C@H](COP(=O)(O)OP(=O)(O)OCC(O)CO)[C@@H](O)[C@H]2O)c(=O)[nH]1 (stereo partly drawn) [Compound 22, Diphosphoric acid 1-α-glycerol ester 2-(uridine-5′-yl)ester]
fold less potent than UDP 3 at the P2Y14 receptor (hP2Y14 receptor): 10 fold

COP(=O)(O)OP(=O)(O)OC[C@H]1O[C@@H](n2ccc(=O)[nH]c2=S)[C@H](O)[C@@H]1O.N [Compound 15, Diphosphoric acid 1-β-methyl ester 2-(2-thiouridine-5′-yl)ester]
fold selectivity for P2Y14 in comparison to P2Y6 (hP2Y14 receptor): > 180 fold

O=c1ccn([C@@H]2O[C@H](COP(=O)(O)OP(=O)(O)O)[C@@H](O)[C@H]2O)c(=S)[nH]1 [Compound 4, 2-thio-UDP]
fold selectivity for P2Y14 in comparison to P2Y6 (hP2Y14 receptor): 233 fold
fold more potent than UDP 3 at the P2Y14 receptor (hP2Y14 receptor): 83 fold

O=c1ccn([C@@H]2O[C@H](COP(=O)(O)OP(=O)(O)O)[C@@H](O)[C@H]2O)c(=O)[nH]1 [Compound 3, uridine-5′-diphosphate, reference compound]
agonist activity at the P2Y14 receptor (in words) (hP2Y14 receptor): moderately potent agonists
agonist activity at the P2Y14 receptor (in words) (hP2Y14 receptor; listed as UDP): full agonist

CO/N=c1\ccn([C@@H]2O[C@H](COP(=O)(O)OP(=O)(O)O)[C@@H](O)[C@H]2O)c(=O)[nH]1.Cl [Compound 7, N^4-OCH3-CDP]
fold less potent than UDP 3 at the P2Y14 receptor (hP2Y14 receptor): 20 fold

COP(=O)(O)OP(=O)(O)OC[C@H]1O[C@@H](n2ccc(=S)[nH]c2=O)[C@H](O)[C@@H]1O [Compound 16, Diphosphoric acid 1-β-methyl ester 2-(4-thiouridine-5′-yl)ester]
EC50 (hP2Y14 receptor): > 10 µM

N.N#CCCOP(=O)(O)OP(=O)(O)OC[C@H]1O[C@@H](n2ccc(=O)[nH]c2=O)[C@H](O)[C@@H]1O [Compound 19, Diphosphoric acid 1-β-(2-cyanoethyl)ester 2-(uridine-5′-yl)ester]
agonist activity at the P2Y14 receptor (in words) (hP2Y14 receptor): poorly tolerated

O=c1[nH]c(=S)ccn1[C@@H]1O[C@H](COP(=O)(O)OP(=O)(O)O)[C@@H](O)[C@H]1O [Compound 5, 4-thio-UDP]
agonist activity at the P2Y14 receptor (in words) (hP2Y14 receptor): moderately potent agonists

CCCOP(=O)(O)OP(=O)(O)OC[C@H]1O[C@@H](n2ccc(=O)[nH]c2=S)[C@H](O)[C@@H]1O.N [Compound 18, Diphosphoric acid 1-β-propyl ester 2-(2-thiouridine-5′-yl)ester]
fold selectivity for P2Y14 in comparison to P2Y6 (hP2Y14 receptor): > 200 fold

CC(C)(C)OP(=O)(O)OP(=O)(O)OC[C@H]1O[C@@H](n2ccc(=O)[nH]c2=S)[C@H](O)[C@@H]1O.N [Compound 25, Diphosphoric acid 1-β-tert-butyl ester 2-(2-thiouridine-5′-yl)ester]
fold more potent than UDPG at the P2Y14 receptor (hP2Y14 receptor; relative to UDPG 1): 11 fold
fold more potent than the corresponding 2-oxo analogue 24 at the P2Y14 receptor (hP2Y14 receptor; relative to compound 24): 8 fold

C#CCCOP(=O)(O)OP(=O)(O)OC[C@H]1O[C@@H](n2ccc(=O)[nH]c2=S)[C@H](O)[C@@H]1O.CCN(CC)CC [Compound 21, Diphosphoric acid 1-β-(3-butynyl) ester 2-(2-thiouridine-5′-yl)ester]
fold selectivity for P2Y14 in comparison to P2Y6 (hP2Y14 receptor): > 900 fold
fold more potent than UDP 3 at the P2Y14 receptor (hP2Y14 receptor): 16 fold

CCOP(=O)(O)OP(=O)(O)OC[C@H]1O[C@@H](n2ccc(=O)[nH]c2=S)[C@H](O)[C@@H]1O.N [Compound 17, Diphosphoric acid 1-β-ethyl ester 2-(2-thiouridine-5′-yl)ester]
fold selectivity for P2Y14 in comparison to P2Y6 (hP2Y14 receptor): > 200 fold and > 250 fold

O=c1[nH]c(=O)n([C@@H]2O[C@H](COP(=O)(O)C(F)(F)P(=O)(O)O)[C@@H](O)[C@H]2O)cc1I [Compound 13, 5-I-Up-CF2-p]
fold selectivity for P2Y14 in comparison to P2Y6 (hP2Y14 receptor): not selective

O=c1ccn([C@@H]2O[C@H](COP(=O)(O)C(F)(F)P(=O)(O)O)[C@@H](O)[C@H]2O)c(=O)[nH]1 [Compound 12, α,β-difluoromethylene UDP]
agonist activity at the P2Y6 receptor (in words) (hP2Y6 receptor [1]): did not activate
EC50 (hP2Y6 receptor [2]): > 10 µM
